From paper PMC11059360 (Nature Communications, 2024)

Biological target: T1, SLC26A2 (Homo sapiens, UniProt P50443)
T1 construct: full length, N-terminal His-tag and thrombin site (tag digested with thrombin for cryo-EM); Expi293F, BacMam; LMNG; homodimer; model covers residues 52-724
T1 sequence (P50443 1-739): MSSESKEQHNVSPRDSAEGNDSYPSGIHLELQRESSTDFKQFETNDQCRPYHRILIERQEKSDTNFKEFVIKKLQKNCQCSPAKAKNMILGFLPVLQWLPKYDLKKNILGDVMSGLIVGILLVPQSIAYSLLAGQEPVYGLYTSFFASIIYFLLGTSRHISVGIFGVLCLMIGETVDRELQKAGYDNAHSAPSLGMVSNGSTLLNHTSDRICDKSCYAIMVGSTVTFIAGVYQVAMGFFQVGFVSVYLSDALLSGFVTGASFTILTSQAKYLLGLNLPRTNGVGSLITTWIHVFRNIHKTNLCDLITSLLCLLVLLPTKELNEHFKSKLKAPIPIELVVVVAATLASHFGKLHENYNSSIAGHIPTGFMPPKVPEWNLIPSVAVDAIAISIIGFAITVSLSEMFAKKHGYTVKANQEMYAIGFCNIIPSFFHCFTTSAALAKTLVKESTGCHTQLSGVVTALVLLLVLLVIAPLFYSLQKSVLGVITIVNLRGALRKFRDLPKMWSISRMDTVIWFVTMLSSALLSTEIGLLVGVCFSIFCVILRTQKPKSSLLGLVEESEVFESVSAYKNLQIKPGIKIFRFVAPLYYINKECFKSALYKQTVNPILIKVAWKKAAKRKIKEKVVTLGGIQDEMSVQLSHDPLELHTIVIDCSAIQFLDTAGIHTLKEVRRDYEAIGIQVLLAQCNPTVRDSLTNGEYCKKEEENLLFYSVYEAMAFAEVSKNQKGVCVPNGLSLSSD
Experiment: cryo-EM structure of the complex
Type: binding
Details: pH 7.5, LMNG

cryo-EM structure of the complex (50 mM K2C2O4, no NaCl, weak density outside the canonical pocket, between TM5 and TM12) | SMILES | cryo-EM structure of the complex (150 mM NaCl, canonical TM3/TM10 pocket, inward-facing)
weak densities outside the pocket | O=C(O)C(=O)O [C2O4^2−] | 
 | Cl [Cl^−] | we identified a distinct density corresponding to the Cl^- ion in this cleft
